US11878008B2, “Composition for preventing or treating atopic dermatitis” (AMOREPACIFIC CORPORATION, priority 2017, dated 2024)
Entries after “also recorded” stand apart in the source; their conditions may differ.

Assays:
[1] = Change in body temperature after oral administration in mice; assay type: in vivo, Balb/c mice; conditions: for change in body temperature, dose dependence: up to 4 hours, AMG 517 0.03, 0.1, 0.3 mg/kg, compound of Formula 1 3, 10, 30 mg/kg, FIGS. 2A, 2B
Source text: Meanwhile, when the same drug was orally administered, a concentration-dependent increase in body temperature due to TRPV1 antagonism was observed as expected (see FIGS. 2A and 2B).

[2] = cited from earlier work
[3] = C57BL/6, mouse, in vivo, 2 h
Method: As described above, AMG 517, a representative reference drug as a TRPV1 antagonist, and the compound of Formula 1 of the present invention were tested for the increase in body temperature during transdermal administration.

[4] = rats; cited from earlier work
[5] = rats, oral dose of 3 mg/kg; cited from earlier work
[6] = Change in body temperature in healthy volunteers after percutaneous administration; assay type: in vivo, human; conditions: percutaneous application to back skin, 7 to 30 days
Source text: The composition of Example 1 including the compound of Formula 1 was percutaneously applied to healthy volunteers other than the patients with atopic dermatitis to check a change in body temperature.
The 24 healthy adult volunteers were divided into three groups, and the volunteers in each of the groups were then randomly allocated into a test group of 6 volunteers (Example 1) and a placebo group of 2 volunteers (Comparative Example 1). The same clinician applied the composition onto the volunteers' back skins at a dose of 5, 15, 50 mg per 5 g every morning according to a predetermined administration method. In this case, the composition was applied for 7, 15, 30 days with a size of 25×40 cm and an area of 1,000 cm^2.
A range of the body temperatures measured for the 24 volunteers in a clinical trial period was in a range of 35.4 to 37.3° C. The results of the changes in body temperatures from the baseline before the drug administration in each of the groups are as listed in the following Table 13.

[7] = Change in body temperature in healthy volunteers after oral administration; assay type: in vivo, human; conditions: oral 5 mg or 10 mg once a day for 8 days; healthy adult volunteers; FIGS. 6A, 6B
Method: Ten healthy adult volunteers were divided into two groups, and the compound of Formula 1 was orally administered to the volunteers in each of the groups at a dose of 5 mg or 10 mg once a day for 8 days. Thereafter, a placebo was administered to the two volunteers in each of the groups, and the body temperatures were measured for 14 days. Then, the mean body temperature of the volunteers and a change in body temperature were determined.

| change in body temperature at lowest dose ([1]; 0.03 mg/kg) | increase in body temperature [3] [°C] | SMILES | change in body temperature, dose dependence [1] | concentration dependence of hyperthermia ([2]; oral administration for treatment of dental pain/toothache) | body temperature increased to ([2]; oral, group administered a dose of 25 mg) [°C] | effective concentration to maximize analgesic efficacy [4] | body temperature increase [5] | clinically significant findings associated with changes in body temperature [6] | body temperature change, dose dependence [7] |
| --- | --- | --- | --- | --- | --- | --- | --- | --- | --- |
| significantly increased body temperature | ~1.59 | CC(=O)Nc1nc2c(Oc3cc(-c4ccc(C(F)(F)F)cc4)ncn3)cccc2s1 [AMG 517] | increased body temperature in a dose-dependent manner | concentration-dependent side effect of hyperthermia; also recorded: increased body temperature, which was proportional to a serum AMG 517 concentration | 39.9 | less than 0.3 mg/kg | about 1.3 °C |  |  |
|  | ~0.84 | CCCc1nc(C(F)(F)F)ccc1/C=C/C(=O)N[C@H](C)c1cc(F)c(NS(C)(=O)=O)c(F)c1 [compound of Formula 1, (R)-N-[1-(3,5-difluoro-4-methanesulfonylamino-phenyl)-ethyl]-3-(2-propyl-6-trifluoromethyl-pyridin-3-yl)-acrylamide] | increased body temperature in a dose-dependent manner |  |  |  |  | such an increase in body temperature was not observed | increased the body temperature in a dose-dependent manner; also recorded: increased body temperature (hyperthermia) were caused in a concentration-dependent manner |
